According to article PMC8403869 (Proceedings of the National Academy of Sciences of the …, 2021):

Tests used:
[1] = biological target: T1, human ABCG5-ABCG8 heterodimer (G5G8) (Homo sapiens, UniProt Q9H221+Q9H222); experiment: […]phosphate release ATPase assay; type: biochemical; details: 2.5 mM gamma-[32P]ATP (labelled compound), 2.5 mM MgCl2, liver polar lipids, 1% sodium cholate, pH 7.5, 37 °C
T1 construct: heterodimer; HEK-293S GnTI- or Pichia pastoris
T1 sequence (Q9H222 1-651): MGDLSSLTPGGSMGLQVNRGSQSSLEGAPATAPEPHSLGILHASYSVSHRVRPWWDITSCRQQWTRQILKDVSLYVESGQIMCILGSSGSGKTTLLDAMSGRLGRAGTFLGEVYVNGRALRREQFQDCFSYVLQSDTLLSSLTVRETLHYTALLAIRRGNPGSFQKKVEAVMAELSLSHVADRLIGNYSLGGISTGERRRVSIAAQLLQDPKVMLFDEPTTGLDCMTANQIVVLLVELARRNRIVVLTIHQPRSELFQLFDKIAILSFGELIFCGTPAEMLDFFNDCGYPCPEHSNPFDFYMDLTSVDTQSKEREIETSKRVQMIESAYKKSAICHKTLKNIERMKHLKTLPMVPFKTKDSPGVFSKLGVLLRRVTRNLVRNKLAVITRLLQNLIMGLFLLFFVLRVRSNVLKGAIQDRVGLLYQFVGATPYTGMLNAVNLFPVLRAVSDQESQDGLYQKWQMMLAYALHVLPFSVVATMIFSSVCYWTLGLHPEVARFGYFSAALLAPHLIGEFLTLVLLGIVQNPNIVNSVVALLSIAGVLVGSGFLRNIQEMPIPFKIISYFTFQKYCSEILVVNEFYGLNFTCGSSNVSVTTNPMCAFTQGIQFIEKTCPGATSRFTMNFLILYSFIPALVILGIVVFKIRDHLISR
T1 sequence (Q9H221 1-673): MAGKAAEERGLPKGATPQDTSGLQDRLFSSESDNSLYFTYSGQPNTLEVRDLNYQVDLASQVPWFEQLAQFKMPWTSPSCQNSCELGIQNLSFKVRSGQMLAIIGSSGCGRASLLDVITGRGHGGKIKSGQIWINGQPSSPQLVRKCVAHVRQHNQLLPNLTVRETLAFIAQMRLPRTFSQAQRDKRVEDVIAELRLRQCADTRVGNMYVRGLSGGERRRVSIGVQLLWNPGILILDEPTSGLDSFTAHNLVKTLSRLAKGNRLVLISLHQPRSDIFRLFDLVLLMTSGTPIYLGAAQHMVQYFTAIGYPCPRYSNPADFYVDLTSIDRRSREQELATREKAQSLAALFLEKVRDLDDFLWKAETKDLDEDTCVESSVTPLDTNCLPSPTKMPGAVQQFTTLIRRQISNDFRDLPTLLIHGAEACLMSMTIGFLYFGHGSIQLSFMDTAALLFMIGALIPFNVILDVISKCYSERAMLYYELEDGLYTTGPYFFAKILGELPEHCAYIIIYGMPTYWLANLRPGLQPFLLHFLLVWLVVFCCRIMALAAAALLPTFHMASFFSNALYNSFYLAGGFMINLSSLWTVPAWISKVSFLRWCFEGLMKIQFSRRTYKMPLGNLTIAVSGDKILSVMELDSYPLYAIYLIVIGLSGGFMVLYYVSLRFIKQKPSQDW

human ABCG1 (G1) = biological target: T2, human ABCG1 (G1) (Homo sapiens, UniProt P45844); experiment: NADH-coupled ATPase stimulation; type: biochemical; details: 0.25 mM cholesterol, 0.5-20 mM ATP, 2 mM MgCl2, pH 7.5, 37 °C
T2 construct: full-length cDNA, N-terminal Flag tag; homodimer; WT from Sf9, E242Q from HEK-293S GnTI-; LMNG then digitonin

Compound | [32P]phosphate release ATPase assay [1] | ATPase stimulation (human ABCG1 (G1))
Nc1ncnc2c1ncn2[C@@H]1O[C@H](COP(=O)(O)OP(=O)(O)OP(=O)(O)O)[C@@H](O)[C@H]1O [ATP] | The ATPase activity of purified G5G8 was determined as described | –
CC(C)CCC[C@@H](C)[C@H]1CC[C@H]2[C@@H]3CC=C4C[C@@H](O)CC[C@]4(C)[C@H]3CC[C@]12C [cholesterol] | – | ATPase activity was stimulated by cholesterol but not its diastereomer, epi-cholesterol.
